Experimental data published in ChEMBL document CHEMBL3885861, “Open TG-GATES”.

Species: Rattus norvegicus
Assay: Open TG-GATES - Regimen: Single
Assay type: toxicity, organism-based, Sprague-Dawley
Parameters: regimen Single, gender Male, age 6 weeks
Settings: in vivo, po, 0 mg/kg, route gavage, dose level Control; for APTT / Bas / Eos / Fbg / Hb / Ht / Lym / MCH / MCHC / MCV / Mono / Neu / PT / Plat / RBC / Ret / WBC: tissue Blood; for KIDNEY_L / KIDNEY_R / KIDNEY_TOTAL: tissue Kidney; for LIVER: tissue Liver; for A/G / ALP / ALT / AST / BUN / CRE / Ca / Cl / DBIL / GLC / IP / K / LDH / Na / PL / RALB / TBIL / TC / TG / TP / gamma-GTP: tissue Plasma

`Clc1c(Cl)c(Cl)c(Cl)c(Cl)c1Cl` [PERCHLOROBENZENE] gave a TERMINAL_BW (3 h) of 219.4 g, an APTT (3 h) of 19.3 s and a Bas (3 h) of 0.2%. It also gave an Eos (3 h) of 0.8%, a Fbg (3 h) of 218.8 mg/dL and a Hb (3 h) of 13.5 g/dL. The Ht (3 h) was 38.6%, the Lym (3 h) was 75.4% and the MCH (3 h) was 21.1 pg. For the same compound, the MCHC (3 h) was 34.9%, the MCV (3 h) was 60.3 fL and the Mono (3 h) was 3.2%. The Neu (3 h) was 18.6%, the PT (3 h) was 11.9 s and the Plat (3 h) was 122 x10_4/uL. It also gave an RBC (3 h) of 639.6 x10_4/ul, a Ret (3 h) of 7.1% and a WBC (3 h) of 76.5 x10_2/uL. For the same compound, the KIDNEY_L (3 h) was 1 g, the KIDNEY_R (3 h) was 1 g and the KIDNEY_TOTAL (3 h) was 2 g. For the same compound, the LIVER (3 h) was 9.9 g, the A/G (3 h) was 1.7 and the ALP (3 h) was 1008.2 IU/L. The ALT (3 h) was 42.8 IU/L, the AST (3 h) was 78 IU/L and the BUN (3 h) was 11.4 mg/dL. For the same compound, the CRE (3 h) was 0.4 mg/dL, the Ca (3 h) was 10.9 mg/dL and the Cl (3 h) was 103.4 meq/L. For the same compound, the DBIL (3 h) was 0.07 mg/dL, the GLC (3 h) was 187.2 mg/dL and the IP (3 h) was 8.4 mg/dL. The K (3 h) was 4 meq/L, the LDH (3 h) was 216.2 IU/L and the Na (3 h) was 140.6 meq/L. For the same compound, the PL (3 h) was 156.8 mg/dL, the RALB (3 h) was 3.5 g/dL and the TBIL (3 h) was 0.1 mg/dL. The TC (3 h) was 76.8 mg/dL, the TG (3 h) was 103.4 mg/dL and the TP (3 h) was 5.5 g/dL. The gamma-GTP (3 h) was 1 IU/L, the TERMINAL_BW (6 h) was 219.4 g and the APTT (6 h) was 19.5 s. The Bas (6 h) was 0.2%, the Eos (6 h) was 0.6% and the Fbg (6 h) was 230.4 mg/dL. It also gave a Hb (6 h) of 13.5 g/dL, a Ht (6 h) of 38.4% and a Lym (6 h) of 79.6%. It also gave an MCH (6 h) of 21.7 pg, an MCHC (6 h) of 35.3% and an MCV (6 h) of 61.5 fL. The Mono (6 h) was 3.2%, the Neu (6 h) was 14.8% and the PT (6 h) was 11.7 s. For the same compound, the Plat (6 h) was 134.1 x10_4/uL, the RBC (6 h) was 624 x10_4/ul and the Ret (6 h) was 7.2%. For the same compound, the WBC (6 h) was 106.3 x10_2/uL, the KIDNEY_L (6 h) was 1 g and the KIDNEY_R (6 h) was 1 g. It also gave a KIDNEY_TOTAL (6 h) of 2 g, an LIVER (6 h) of 9.6 g and an A/G (6 h) of 1.5. For the same compound, the ALP (6 h) was 958.2 IU/L, the ALT (6 h) was 32 IU/L and the AST (6 h) was 70.6 IU/L. For the same compound, the BUN (6 h) was 9.2 mg/dL, the CRE (6 h) was 0.4 mg/dL and the Ca (6 h) was 10.6 mg/dL. It also gave a Cl (6 h) of 102.6 meq/L, a DBIL (6 h) of 0.06 mg/dL and a GLC (6 h) of 192.8 mg/dL. It also gave an IP (6 h) of 9.4 mg/dL, a K (6 h) of 4.2 meq/L and an LDH (6 h) of 216.4 IU/L. The Na (6 h) was 140.2 meq/L, the PL (6 h) was 149.6 mg/dL and the RALB (6 h) was 3.3 g/dL. For the same compound, the TBIL (6 h) was 0.1 mg/dL, the TC (6 h) was 77.6 mg/dL and the TG (6 h) was 71.2 mg/dL. It also gave a TP (6 h) of 5.6 g/dL, a gamma-GTP (6 h) of 1.2 IU/L and a TERMINAL_BW (9 h) of 215.4 g. For the same compound, the APTT (9 h) was 21.3 s, the Bas (9 h) was 0.2% and the Eos (9 h) was 1%. For the same compound, the Fbg (9 h) was 226.6 mg/dL, the Hb (9 h) was 13.5 g/dL and the Ht (9 h) was 38.6%. It also gave a Lym (9 h) of 75%, an MCH (9 h) of 21.1 pg and an MCHC (9 h) of 35%. For the same compound, the MCV (9 h) was 60.2 fL, the Mono (9 h) was 2.6% and the Neu (9 h) was 19.8%. For the same compound, the PT (9 h) was 12.3 s, the Plat (9 h) was 128.3 x10_4/uL and the RBC (9 h) was 641.8 x10_4/ul. The Ret (9 h) was 7%, the WBC (9 h) was 90.9 x10_2/uL and the KIDNEY_L (9 h) was 1 g. It also gave a KIDNEY_R (9 h) of 0.9 g, a KIDNEY_TOTAL (9 h) of 1.9 g and an LIVER (9 h) of 8.7 g. The A/G (9 h) was 1.6, the ALP (9 h) was 849.2 IU/L and the ALT (9 h) was 28.4 IU/L. The AST (9 h) was 62.4 IU/L, the BUN (9 h) was 9.4 mg/dL and the CRE (9 h) was 0.3 mg/dL. For the same compound, the Ca (9 h) was 10.7 mg/dL, the Cl (9 h) was 103.6 meq/L and the DBIL (9 h) was 0.068 mg/dL. The GLC (9 h) was 198.8 mg/dL, the IP (9 h) was 10.6 mg/dL and the K (9 h) was 3.8 meq/L. For the same compound, the LDH (9 h) was 175.8 IU/L, the Na (9 h) was 142 meq/L and the PL (9 h) was 129.4 mg/dL. It also gave an RALB (9 h) of 3.3 g/dL, a TBIL (9 h) of 0.1 mg/dL and a TC (9 h) of 67.6 mg/dL. The TG (9 h) was 46.6 mg/dL, the TP (9 h) was 5.5 g/dL and the gamma-GTP (9 h) was 1 IU/L. For the same compound, the TERMINAL_BW (24 h) was 227.7 g, the APTT (24 h) was 18.7 s and the Bas (24 h) was 0.6%. It also gave an Eos (24 h) of 0.8%, a Fbg (24 h) of 216.6 mg/dL and a Hb (24 h) of 13.7 g/dL. It also gave a Ht (24 h) of 39.5%, a Lym (24 h) of 80.8% and an MCH (24 h) of 21.1 pg. For the same compound, the MCHC (24 h) was 34.8%, the MCV (24 h) was 60.6 fL and the Mono (24 h) was 2.2%. It also gave a Neu (24 h) of 14.8%, a PT (24 h) of 11.9 s and a Plat (24 h) of 129.9 x10_4/uL. It also gave an RBC (24 h) of 651.8 x10_4/ul, a Ret (24 h) of 6.2% and a WBC (24 h) of 90.7 x10_2/uL. For the same compound, the KIDNEY_L (24 h) was 1.1 g, the KIDNEY_R (24 h) was 1.1 g and the KIDNEY_TOTAL (24 h) was 2.1 g. It also gave an LIVER (24 h) of 10.3 g, an A/G (24 h) of 1.6 and an ALP (24 h) of 981.2 IU/L. The ALT (24 h) was 31.2 IU/L, the AST (24 h) was 70.6 IU/L and the BUN (24 h) was 13.6 mg/dL. For the same compound, the CRE (24 h) was 0.4 mg/dL, the Ca (24 h) was 10.9 mg/dL and the Cl (24 h) was 103 meq/L. For the same compound, the DBIL (24 h) was 0.06 mg/dL, the GLC (24 h) was 192.6 mg/dL and the IP (24 h) was 7.5 mg/dL. It also gave a K (24 h) of 4 meq/L, an LDH (24 h) of 203.2 IU/L and a Na (24 h) of 141.2 meq/L. It also gave a PL (24 h) of 131.4 mg/dL, an RALB (24 h) of 3.4 g/dL and a TBIL (24 h) of 0.1 mg/dL. The TC (24 h) was 70.2 mg/dL, the TG (24 h) was 68.2 mg/dL and the TP (24 h) was 5.5 g/dL. The gamma-GTP (24 h) was 1.2 IU/L.
